Consider five compounds from patent US7691874B2, “Neuroprotective properties of dextrorotatory morphinans” (priority 2004, dated 2010).

In series [1] the test system is MA-treated mice. Description: Nigral TH-IR in MA-treated mice. To be noted: 24 mg/kg i.p.
Series [2] deals with MA-treated mice. Description: MA-induced behavioural sensitization. The note with it: morphinan 20 mg/kg i.p., last 3 days of wash-out (Ex. 3.12). As to the method: Morphinans (20 mg/kg, i.p.) were administered last 3 days of wash-out period.
The subject of series [3] is NMDA receptor associated PCP sites. The note with it: cited from earlier work.
The test system of series [4] is LPS-treated mice. Description: Hypokinesia induced by intrastriatal LPS. The note with it: 12 or 24 mg/kg, twice before bilateral intrastriatal LPS.
Method: Male mice were anesthetized with chloral hydrate (200 mg/kg, i.p.) and positioned in a small-animal stereotaxic apparatus. […] LPS (2 μg in a volume of 2 μl of PBS) was injected into both sides of the striatum over a period of 2 min, and the injection needle was kept in place for 2 min after the injection. Control animals received striatal injection with PBS.
Ten min after the last treatment with each drug, locomotor activity was measured for 30 min. After measuring the locomotor activity (i.e. 40 min after the last drug injection), the ‘absolute turn angular’ was analyzed in a 3-min monitoring period using an automated video-tracking system (Noldus Information Technology, Wagenin, The Netherlands) to examine locomotor patterns. […] Eight test boxes (40×40×30 cm high) were operated simultaneously by an IBM computer. Animals were studied individually during locomotion in each test box, where they were adapted for 10 min before starting the experiment. […] The distance traveled in cm by the animals in horizontal locomotor activity was analyzed (13, 25, 27). Data were collected and analyzed between 0900 and 1700 hr.
The subject of series [5] is MA-treated mice. Description: Methamphetamine (MA)-induced hyperthermia. The format is in vivo. To be noted: 24 mg/kg; MA 7.5 mg/kg i.p. x 4 at 2-h intervals. As to the method: Rectal temperature was recorded at 40 min after each MA treatment. […] Mice were sacrificed at 3 days after final MA injection.
FIGS. 10A-10B show effect of morphinans on the methamphetamine (MA)-induced hyperthermia. Mice received i.p. injections of MA (four injections of 7.5 mg/kg each) at 2-h intervals under the ambient temperature of 22.0±0.5° C. Temperatures were recorded at 40 min after each MA treatment (Arrow=MA injection).

Series [6] has as its system cocaine-treated mice. Description: Cocaine-induced Fos-related antigen-immunoreactivity (FRA-IR) in the striatum. The note with it: cocaine 5 mg/kg; morphinan 20 mg/kg i.p.
Series [7] relates to MPTP-treated mice. Description: Striatal dopamine and metabolites (HPLC-EC) in MPTP-treated mice. To be noted: for Concentration DA in the striatum: mean ± S.E.M., 8 animals.
Method: Each morphinan was administered 30 min prior to every injection of MPTP for last three days (from day 4th to day 7th). Animals were sacrificed 24 h after the last MPTP treatment.
Brains were rapidly removed and cut into 1 mm coronal sections on ice. The striatum was punched using a fine pasteur pipette (3, 21, 22), and stored at −70° C. DA and its metabolites, 3,4-dihydroxyphenylacetic acid (DOPAC) and homovanilic acid (HVA) were measured by HPLC-eletrochemical detection (3, 21, 22). Briefly, the striatum was homogenized in 0.2 M perchloric acid containing 3,4-dihydroxybenzylamine as an internal standard (10 mg wet weight of tissue per ml). The homogenate was centrifuged and a 20-μl aliquot of the supernatant was injected into the HPLC equipped with an ODS-C18 column. The mobile phase was comprised of 26 ml of acetonitrile, 21 ml of tetrahydrofuran and 960 ml of 0.15 M monochloroacetic acid (pH 3.0) containing 50 mg/l of EDTA and 200 mg/l of sodium octyl sulfate. The amount of DA, DOPAC and HVA were determined by comparison of peak height ratio of tissue sample with standards, and were expressed in nanograms per 100 mg of wet weight of tissue.
Each morphinan was administered 30 min before every injection of MPTP for last three days. Animals were sacrificed at 24 h after the last MPTP injection.
For series [8], the target named is σ1 receptors (Homo sapiens, UniProt Q99720). To be noted: cited from earlier work.
The test system of series [9] is MA-treated mice. Description: Striatal dopamine and metabolites in MA-treated mice. The format is in vivo. To be noted: for Concentration DA in the striatum: 3 days after final MA. An excerpt:
Mice were sacrificed at 3 days after final MA injection.

The subject of series [10] is LPS-treated mice. Description: Striatal dopamine and metabolites in LPS-treated mice. The format is in vivo. The note with it: for Concentration DA in the striatum: 3 weeks after LPS. From the text: Control animals received striatal injection with PBS.
Mice were sacrificed at 3 weeks after LPS treatment.

For series [11], the system named is kainate or maximal electric shock. To be noted: kainate (24) or maximal electric shock (27); cited from earlier work.
For series [12], the system named is MA-treated mice. Description: Hypokinesia induced by MA. The format is in vivo. To be noted: 12 and 24 mg/kg; 3 days after final MA.
Series [13] deals with C57 BL/6 mice. Description: Conditioned place preference (psychological dependence) following repeated administration of morphinans or PCP. Type of series: in vivo. To be noted: 20 or 40 mg/kg i.p. (PCP 2.5 or 5 mg/kg); vs saline. On the procedure:
On day 14, the guillotine doors were raised. […] Data were analyzed between 0900 and 1700 hr.

Series [14] concerns MA-treated mice. Description: MA-induced FRA-IR in the striatum. The note with it: morphinan 20 mg/kg i.p.; MA 1 mg/kg i.p./day x 7.
Method: Therefore, brains were removed and used for immunocytochemical analysis at 18 h after the final cocaine/MA treatment. The coronal sections containing striatum were processed for FRA immunocytochemistry. […] The FRA antibody was used at 1:2,000 as the optimal dilution. The FRA-IR in the striatum was calculated using image analysis systems with a polaroid digital microscopic camera (Optimas version 6.2).
In series [15] the test system is MA-treated mice. Description: MA-induced hyperlocomotion. Type of series: in vivo. To be noted: morphinan 20 mg/kg i.p. 30 min before MA 1 mg/kg i.p./day x 7. On the procedure:
FIGS. 39A-39D show effect of morphinans on the MA-induced hyperactivity in the mice. Each morphinan (20 mg/kg, i.p.) was administered 30 minutes prior to MA (1 mg/kg, i.p.). All treatments were performed for 7 days.

Series [16] concerns MPTP-treated mice. Description: Hypokinesia (reduction in locomotor activity) induced by MPTP. The format is in vivo. The note with it: 12 or 24 mg/kg i.p. 30 min before MPTP (20 mg/kg/day x 7), last three days.
Series [17] has as its system cocaine-treated mice. Description: Cocaine-induced hyperlocomotion. The format is in vivo. The note with it: for effect on locomotor activity induced by low dose of cocaine: cocaine 5 mg/kg i.p. x 7 days, morphinan 15 or 30 mg/kg (DF 20 mg/kg) i.p.; for effect on hyperactivity induced by high dose of cocaine: cocaine 20 mg/kg i.p. x 7 days, morphinan 15 or 30 mg/kg i.p. 30 min before. As to the method:
FIGS. 34A-34B show effect of morphinans on the cocaine-induced hyperactivity in the mice. Morphinans (15 and 30 mg/kg, i.p.) were administered 30 minutes prior to cocaine (5 and 20 mg/kg, i.p.). Central activity means relatively non-specific locomotor activity in the center of the box. Marginal activity means circling behaviors. All treatments were performed for 7 days.
FIGS. 35A-35D show effect of dimemorfan (DF) on cocaine-induced hyperactivity in the mice. DF (20 mg/kg, i.p.) was administered 30 minutes prior to cocaine (5 and 20 mg/kg, i.p.). All treatments were performed for 7 days.

The test system of series [18] is C57 BL/6 mice. Description: Locomotor activity and locomotor pattern following repeated administration of morphinans or PCP. The note with it: for locomotor pattern (tracings): 40 mg/kg i.p. (PCP 5 mg/kg), FIG. 3; for marginal activity (circling behaviour; absolute turn angular): 20 or 40 mg/kg i.p./day x 7 (PCP 2.5 or 5 mg/kg), 3-min period; for marginal activity (circling behaviour; absolute turn angular) / locomotor activity (total distance moved): vs saline; for locomotor activity (total distance moved): 20 or 40 mg/kg i.p./day x 7 days, 30 min after final treatment. Type of series: in vivo.

For series [19], the target named is CB1 receptor (Rattus norvegicus, UniProt P20272). Type of series: biochemical.

Each structure is given as a SMILES string. Marks after values point to notes of the source that are not given here.

Sequence of σ1 receptors (Q99720 whole entry): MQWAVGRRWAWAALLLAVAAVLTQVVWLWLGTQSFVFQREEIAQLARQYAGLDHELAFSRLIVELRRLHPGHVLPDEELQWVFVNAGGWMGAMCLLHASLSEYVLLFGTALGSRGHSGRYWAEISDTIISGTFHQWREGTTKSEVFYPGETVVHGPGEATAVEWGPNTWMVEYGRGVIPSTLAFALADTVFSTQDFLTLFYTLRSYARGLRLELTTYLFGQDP
Sequence of CB1 receptor (P20272 whole entry): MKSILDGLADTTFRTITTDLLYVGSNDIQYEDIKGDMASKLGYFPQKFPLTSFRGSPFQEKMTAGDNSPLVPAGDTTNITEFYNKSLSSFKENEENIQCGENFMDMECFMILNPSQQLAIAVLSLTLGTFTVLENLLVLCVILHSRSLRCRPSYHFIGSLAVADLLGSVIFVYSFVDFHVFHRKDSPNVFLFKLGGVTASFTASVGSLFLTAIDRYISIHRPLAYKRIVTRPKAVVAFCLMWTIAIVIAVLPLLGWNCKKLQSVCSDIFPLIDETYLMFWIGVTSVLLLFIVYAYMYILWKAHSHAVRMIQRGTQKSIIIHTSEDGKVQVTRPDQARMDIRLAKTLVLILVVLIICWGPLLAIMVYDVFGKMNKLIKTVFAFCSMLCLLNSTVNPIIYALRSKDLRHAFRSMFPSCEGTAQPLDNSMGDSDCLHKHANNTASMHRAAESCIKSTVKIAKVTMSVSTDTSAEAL

With `C=CCOc1ccc2c(c1)[C@@]13CCCC[C@H]1[C@@H](C2)N(C)CC3` [AM, 3-allyloxy-17-methylmorphinan], the “effect on MA-induced decrease in nigral TH-positive cells” value in [1] is recorded as “significantly attenuated the decrease in TH-positive cells”. Moreover, the “effect on MA-induced behavioural sensitization” value in series [2] is given as “significantly reduced”. Besides, the “affinity for NMDA receptor associated PCP sites” value in [3] is “very low affinities”. Also, the “effect on LPS-induced decrease in locomotor activity” value in series [4] is given as “neither AM nor DF were effective in attenuating locomotor hypoactivity”. The “effect on MA-induced hyperthermia (rectal temperature)” value in series [5] was “attenuated by all morphinans used in this study”. Further, the “effect on cocaine-induced FRA-IR in the striatum” value in series [6] was “apparently attenuated”. For the same compound, the “effect on MPTP-induced reductions in striatal DA, DOPAC and HVA” value in series [7] (24 mg/kg pretreatment) was “did not alter reductions in DA, DOPAC and HVA”. Also, the “Concentration DOPAC in the striatum” value is recorded as 54 ± 6 ng/100 mg wet tissue in [7] (morphinan 12 (mg/kg) + MPTP); 66 ± 8 ng/100 mg wet tissue in series [7] (morphinan 24 (mg/kg) + MPTP); 89 ± 9 ng/100 mg wet tissue in series [9] (morphinan 12 (mg/kg) + MA); 96 ± 10^b ng/100 mg wet tissue in series [9] (morphinan 24 (mg/kg) + MA); 64 ± 8 ng/100 mg wet tissue in series [10] (morphinan 12 (mg/kg) + LPS); 66 ± 7 ng/100 mg wet tissue in series [10] (morphinan 24 (mg/kg) + LPS). The “Concentration HVA in the striatum” value in series [7] (morphinan 12 (mg/kg) + MPTP) is 69 ± 5 ng/100 mg wet tissue; in series [7] (morphinan 24 (mg/kg) + MPTP), 78 ± 7 ng/100 mg wet tissue; in [9] (morphinan 12 (mg/kg) + MA) it was 79 ± 9 ng/100 mg wet tissue; in series [9] (morphinan 24 (mg/kg) + MA), 92 ± 10^b ng/100 mg wet tissue; in [10] (morphinan 12 (mg/kg) + LPS), 75 ± 6 ng/100 mg wet tissue; in [10] (morphinan 24 (mg/kg) + LPS), 70 ± 8 ng/100 mg wet tissue. The “Concentration DA in the striatum” value in series [7] (morphinan 12 (mg/kg) + MPTP) was 468 ± 52 ng/100 mg wet tissue; in series [7] (morphinan 24 (mg/kg) + MPTP), 539 ± 64 ng/100 mg wet tissue; in [9] (morphinan 12 (mg/kg) + MA, mean ± S.E.M., 8 animals), 601 ± 62 ng/100 mg wet tissue; in series [9] (morphinan 24 (mg/kg) + MA) it was 749 ± 64^b ng/100 mg wet tissue; in series [10] (morphinan 12 (mg/kg) + LPS, mean ± S.E.M., 8 animals), 454 ± 55 ng/100 mg wet tissue; in [10] (morphinan 24 (mg/kg) + LPS) it was 452 ± 49 ng/100 mg wet tissue. In [8], the “affinity for σ1 receptors” value was “high affinity ligands”. The “effect on MA-induced reductions in striatal DA, DOPAC and HVA” value in [9] (24 mg/kg pretreatment) was “significantly protected”. Besides, the “effect on LPS-induced reductions in striatal DA, DOPAC and HVA” value in series [10] (24 mg/kg pretreatment) was “did not alter LPS-induced reductions in DA, DOPAC and HVA levels”. Further, the anticonvulsant effect result in series [11] is given as “exhibited anticonvulsant effects”. In addition, the “effect on MA-induced reduction in locomotor activity” value in series [12] is listed as “significantly prevented MA-induced reduction in locomotor activity”. Also, in [13], the “conditioned place preference (CPP)” value was “almost no CPP effects”. In series [14], the “effect on MA-induced FRA-IR in the striatum” value is given as “apparently attenuated”. Also, the “effect on MA-induced hyperlocomotion” value in series [15] is listed as “consistently effective in attenuating hyperlocomotion induced by MA”. Moreover, the “effect on MPTP-induced reduction in locomotor activity” value in [16] was “neither AM nor DF affected significantly the locomotor hypoactivity”. The “effect on locomotor activity induced by low dose of cocaine” value in series [17] is “consistently attenuated locomotor activity induced by a low dose of cocaine”. The “effect on hyperactivity induced by high dose of cocaine” value in series [17] was “not uniform”. Moreover, in series [18], the “locomotor pattern (tracings)” value is “did not produce significant marginal activity”. Besides, the “marginal activity (circling behaviour; absolute turn angular)” value (“marginal activity” below) in series [18] is listed as “did not significantly affect marginal activity”. Also, in [18], the “locomotor activity (total distance moved)” value was “appeared to increase locomotor activity slightly”.
With `CCCCCCC(C)(C)c1ccc([C@@H]2C[C@H](O)CC[C@H]2CCCO)c(O)c1` [CP55,940, [1α, 2β-(R)-5α]-(−)-5-(1,1-dimethyl)-2-[5-hydroxy-2-(3-hydroxypropyl)cyclohexyl-phenol], reference compound], the “stimulation of GTP γS binding” value in [19] is “about 120%”.
For the compound `CN1CC[C@]23CCCC[C@H]2[C@H]1Cc1ccc(O)cc13` [DX, 3-hydroxy-17-methylmorphinan, reference compound], in series [8], the “affinity for σ1 receptors” value is recorded as “high affinity ligands”. Moreover, in series [13], the “conditioned place preference (CPP)” value was “produced CPP in a dose-dependent manner”. Moreover, in series [18], the “locomotor pattern (tracings)” value is listed as “produced marginal activity”, the “marginal activity” value is “significant increase in marginal activity” and the “locomotor activity (total distance moved)” value is on record as “significantly increased locomotor activity”.
`COc1ccc2c(c1)[C@@]13CCCC[C@H]1[C@@H](C2)NCC3` [MM, 3-methoxymorphinan, reference compound]: in [6], the “effect on cocaine-induced FRA-IR in the striatum” value is reported as “Neither DM nor MM affects this induction of FRA-IR”. Moreover, in series [17], the “effect on locomotor activity induced by low dose of cocaine” value is recorded as “did not influence locomotor activity mediated by a low dose of cocaine” and the “effect on hyperactivity induced by high dose of cocaine” value is given as “attenuated”.
On to `c1ccc(C2(N3CCCCC3)CCCCC2)cc1` [PCP, phencyclidine, reference compound], for which, in series [13], the “conditioned place preference (CPP)” value was “most significant CPP”. For the same compound, in series [18], the “locomotor pattern (tracings)” value is listed as “produced marginal activity” and the “marginal activity” value was “much stronger stereotypies”.
